Paper PMC6261997, “Synergistic enzymatic and bioorthogonal reactions for selective prodrug activation in living systems” (Nature Communications, 2018)

Test system: CCC-HEH-2 cells
Test: Clonogenic assay, CCC-HEH-2 cells
Type: cell-based, human
Details: pre-treated with 500 μM 2 for 6 h
Method: Supplementary Figure 17. Clonogenic assay of different cell lines before and after treatment with 2. HeLa cells, HUVECs and Saos-2 cells were seeded at density of 400 cells per well, CCC-HEH-2 cells were seeded at density of 200 cells per well. Cells were incubated with 500 µM 2 for 6 h in the treatment groups. Cells were not treated with compound 2 in the control groups. Colonies were harvest approximately 10 days after seeding. Scale bar, 10 mm.
Supplementary Figure 18. Cytotoxicity of activated Dox against HeLa cells and HUVECs. HeLa cells or HUVECs at the density of 3x10^3 cells per well were incubated with 100 µL of pre-warmed medium containing compound 2 at 300 or 500 µM for 6 h. After washing with PBS, 100 µL of 0.0001-10 µM TCO-Dox was added. After 72 h, cell proliferation was assessed by the MTT assay (n= 6). Error bars indicate standard […]
Supplementary Figure 19. […] At each time point, the remaining 2, corresponding generated 3 and remaining TCO-Dox were determined by UPLC-MS/MS. […]
Clonogenic assay of cells in vitro: Clonogenic assay was performed according to the standard protocol.6 2×10^5 attached cells were treated with 500 µM of 2 for 6 h in culture dishes. Cells were then detached, re-suspended in cultural medium and counted accurately. […]
The glutaraldehyde crystal violet mixture was removed carefully. […] The number of the colonies was counted using a stereomicroscope. […]

SMILES: Cc1nnc(-c2ccc(CC(=O)NCCCCC(NC(=O)Cc3ccc4ccccc4c3)C(=O)NC(Cc3ccc(OP(=O)(O)O)cc3)C(=O)NC(Cc3ccccc3)C(=O)O)cc2)nn1 (stereo not shown) [compound 2, NapK(Tz)YpF]
- Surviving Fraction, CCC-HEH-2: 92.2 ±8.3%
